Marks after values point to notes of the source that are not given here.
Target: GluN1-1a/GluN2B NMDAR (wildtype) (Rattus norvegicus, UniProt P35439+Q00960)
Format: cell-based
Details: for IC50 / p (slope of the dose-response curve) / A2 ± SE (maximum inhibition from dose-response curve): TEVC; for IC50: holding potential −70 mV, 10 µM glycine and 10 µM (S)-glutamate, read-out: IC50 ± SE; for p (slope of the dose-response curve) / A2 ± SE (maximum inhibition from dose-response curve): −70 mV; for A2 ± SE (maximum inhibition from dose-response curve): flexible A2; for IC50 shift compared to rac-1: wildtype GluN1-1a/GluN2B, IC50 increase relative to rac-1; for A2 (maximum inhibition), set as identical with rac-1: due to non-saturating inhibition A2 was fixed, not fitted

GluN1-1a/GluN2B NMDAR (wildtype), sequence (Q00960 27-1482, other chains not shown): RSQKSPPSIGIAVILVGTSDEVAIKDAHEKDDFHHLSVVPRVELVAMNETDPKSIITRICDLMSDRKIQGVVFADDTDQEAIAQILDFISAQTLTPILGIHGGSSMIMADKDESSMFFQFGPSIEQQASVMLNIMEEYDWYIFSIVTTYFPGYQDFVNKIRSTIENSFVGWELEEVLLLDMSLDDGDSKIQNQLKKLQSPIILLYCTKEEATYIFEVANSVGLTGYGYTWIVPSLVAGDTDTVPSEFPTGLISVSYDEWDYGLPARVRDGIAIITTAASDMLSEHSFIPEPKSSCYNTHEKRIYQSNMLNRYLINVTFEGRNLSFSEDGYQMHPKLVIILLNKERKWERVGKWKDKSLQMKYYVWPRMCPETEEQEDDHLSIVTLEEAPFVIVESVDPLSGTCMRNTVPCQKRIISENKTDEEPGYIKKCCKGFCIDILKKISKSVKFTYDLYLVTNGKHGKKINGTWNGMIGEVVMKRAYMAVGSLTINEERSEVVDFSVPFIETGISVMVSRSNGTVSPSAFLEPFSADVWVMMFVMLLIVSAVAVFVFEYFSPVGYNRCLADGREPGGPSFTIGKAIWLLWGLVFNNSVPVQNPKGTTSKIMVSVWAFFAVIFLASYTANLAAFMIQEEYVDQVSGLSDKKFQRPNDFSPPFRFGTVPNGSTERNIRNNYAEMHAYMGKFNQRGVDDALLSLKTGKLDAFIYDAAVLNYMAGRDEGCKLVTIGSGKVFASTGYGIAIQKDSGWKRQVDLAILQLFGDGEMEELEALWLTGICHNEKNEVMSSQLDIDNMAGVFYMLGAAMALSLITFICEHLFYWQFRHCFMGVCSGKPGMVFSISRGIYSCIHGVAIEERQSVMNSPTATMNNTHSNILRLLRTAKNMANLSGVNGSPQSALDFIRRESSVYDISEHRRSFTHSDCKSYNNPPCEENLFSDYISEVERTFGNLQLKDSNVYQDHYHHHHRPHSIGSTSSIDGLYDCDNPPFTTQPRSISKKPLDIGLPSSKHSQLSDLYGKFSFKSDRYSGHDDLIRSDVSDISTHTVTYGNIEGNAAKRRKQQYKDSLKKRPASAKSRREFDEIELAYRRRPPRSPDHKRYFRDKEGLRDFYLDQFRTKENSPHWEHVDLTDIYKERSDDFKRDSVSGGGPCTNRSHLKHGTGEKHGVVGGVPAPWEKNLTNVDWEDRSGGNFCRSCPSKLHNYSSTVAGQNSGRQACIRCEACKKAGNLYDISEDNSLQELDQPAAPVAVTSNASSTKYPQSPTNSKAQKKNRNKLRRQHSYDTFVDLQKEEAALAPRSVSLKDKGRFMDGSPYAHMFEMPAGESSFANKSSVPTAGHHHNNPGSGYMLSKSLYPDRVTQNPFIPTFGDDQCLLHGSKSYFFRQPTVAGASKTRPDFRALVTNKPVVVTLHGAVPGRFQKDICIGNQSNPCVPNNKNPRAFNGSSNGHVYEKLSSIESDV

`Oc1ccc2c(c1)CCN(CCCCc1ccccc1)CC2` [compound 3] was tested, and the IC50 (wildtype) was 3370 ± 926 nM, the “p (slope of the dose-response curve)” value (wildtype) was 0.93 and the “A2 ± SE (maximum inhibition from dose-response curve)” value (wildtype) was 92 ± 8%. For the same molecule, the “IC50 shift compared to rac-1” value was 36 fold.

For `Oc1ccc2c(c1)CCN([C@H]1CC[C@@H](c3ccccc3)CC1)CC2O` (stereo partly shown) [compound 7], the IC50 (wildtype) was 7210 ± 1770 nM, the “p (slope of the dose-response curve)” value (wildtype) was 0.62 and the “A2 (maximum inhibition), set as identical with rac-1” value was 93^d %.

With `COc1ccc2c(c1)CCN(CCCCc1ccccc1)CC2O` (stereo not shown) [compound 4] the IC50 (wildtype) was 1300 ± 483 nM, the “p (slope of the dose-response curve)” value (wildtype) was 0.70 and the “A2 ± SE (maximum inhibition from dose-response curve)” value (wildtype) was 100 ± 9%. For the same molecule, the “IC50 shift compared to rac-1” value was 14 fold.

In the case of `c1ccc(CCCCN2CCc3ccccc3CC2)cc1` [compound 5], the “Inhibition (% ± SEM) of ion flux” value (compound concentration 30 µM, wildtype) is reported as “almost inactive” and the inhibition at 30 µM (compound concentration 30 µM, wildtype, read-out: Inhibition (% ± SEM) of ion flux) is reported as 9 ± 2%.

For `Oc1ccc2c(c1)CCN([C@H]1CC[C@H](c3ccccc3)CC1)CC2O` (stereo partly shown) [compound 6], the IC50 (wildtype) was 2630 ± 296 nM, the “p (slope of the dose-response curve)” value (wildtype) was 0.70 and the “A2 (maximum inhibition), set as identical with rac-1” value was 93^d %.

Source: PMC6858350, “A common mechanism allows selective targeting of GluN2B subunit-containing N-methyl-D-aspartate receptors” (Communications Biology, 2019)
